According to patent publication US9102678B2, “Compounds and methods for inhibiting mitotic progression” (Millennium Pharmaceuticals, Inc., priority 2004, dated 2015):

Molecular target: T1, recombinant murine Aurora A enzyme (Mus musculus, UniProt P97477)
T1 construct: hexahistidine (His6) (N); made in house; host or cells: insect cells, baculovirus (Bac-to-Bac, Invitrogen)
Experiment: Aurora A DELFIA Kinase Assay
Type: biochemical
Conditions: mouse Aurora A, 250 μM ATP; threshold less than or equal to 100 nM; read-out: IC50

T1 sequence (P97477 whole entry): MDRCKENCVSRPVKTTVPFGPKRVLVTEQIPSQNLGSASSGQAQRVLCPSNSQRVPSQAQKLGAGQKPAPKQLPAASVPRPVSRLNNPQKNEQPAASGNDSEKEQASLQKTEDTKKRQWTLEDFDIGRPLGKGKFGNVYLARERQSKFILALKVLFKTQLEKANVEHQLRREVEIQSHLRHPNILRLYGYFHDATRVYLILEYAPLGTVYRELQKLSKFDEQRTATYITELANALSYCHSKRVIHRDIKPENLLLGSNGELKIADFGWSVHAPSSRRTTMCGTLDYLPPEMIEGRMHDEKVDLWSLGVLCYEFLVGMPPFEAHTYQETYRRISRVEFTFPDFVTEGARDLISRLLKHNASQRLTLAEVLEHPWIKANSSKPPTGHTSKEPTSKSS

| Structure (SMILES) | IC50 [nM] |
| --- | --- |
| CN(C)CC(=O)Nc1ccc(Nc2ncc3c(n2)-c2ccc(Cl)cc2C(c2c(F)cccc2F)=NC3)cc1 [Compound I-307, N-(4-{[9-chloro-7-(2,6-difluorophenyl)-5H-pyrimido[5,4-d][2]benzazepin-2-yl]amino}phenyl)-2-(dimethylamino)acetamide] | ≤ 100 |
| O=C(NC1CCNCC1)c1ccc(Nc2ncc3c(n2)-c2ccc(Cl)cc2C(c2ccccc2F)=NC3)cc1 [Compound I-16, 4-[9-Chloro-7-(2-fluoro-phenyl)-5H-benzo[c]pyrimido[4,5-e]azepin-2-ylamino]-N-piperidin-4-yl-benzamide] | ≤ 100 |
| CN(C)C1CCN(C(=N)c2ccc(Nc3ncc4c(n3)-c3ccc(Cl)cc3C(c3c(F)cccc3F)=NC4)cc2)C1 (stereo not drawn) [Compound I-250, 9-chloro-7-(2,6-difluorophenyl)-N-{4-[[3-(dimethylamino)pyrrolidin-1-yl](imino)methyl]phenyl}-5H-pyrimido[5,4-d][2]benzazepin-2-amine] | ≤ 100 |
| COc1cccc(F)c1C1=NCc2cnc(Nc3ccc(C(=O)N(C)CCCN(C)C)cc3)nc2-c2ccc(Cl)cc21 [Compound I-225, 4-{[9-chloro-7-(2-fluoro-6-methoxyphenyl)-5H-pyrimido[5,4-d][2]benzazepin-2-yl]amino}-N-[3-(dimethylamino)propyl]-N-methylbenzamide] | ≤ 100 |
| O=C(c1ccc(Nc2ncc3c(n2)-c2ccc(Cl)cc2C(c2ccccc2F)=NC3)cc1)N1CCOCC1 [Compound I-26, {4-[9-Chloro-7-(2-fluoro-phenyl)-5H-benzo[c]pyrimido[4,5-e]azepin-2-ylamino]-phenyl}-morpholin-4-yl-methanone] | ≤ 100 |
| NC(=O)C1CN(C(=O)c2ccc(Nc3ncc4c(n3)-c3ccc(Cl)cc3C(c3c(F)cccc3F)=NC4)cc2)CCN1 (stereo not drawn) [Compound I-317, 4-(4-{[9-chloro-7-(2,6-difluorophenyl)-5H-pyrimido[5,4-d][2]benzazepin-2-yl]amino}benzoyl)piperazine-2-carboxamide] | ≤ 100 |
| CNCCN(C)C(=O)c1ccc(Nc2ncc3c(n2)-c2ccc(Cl)cc2C(c2c(F)cccc2F)=NC3)cc1 [Compound I-246, 4-{[9-chloro-7-(2,6-difluorophenyl)-5H-pyrimido[5,4-d][2]benzazepin-2-yl]amino}-N-methyl-N-[2-(methylamino)ethyl]benzamide] | ≤ 100 |
| COc1cccc(F)c1C1=NCc2cnc(Nc3ccc(C(=O)N4CC(C)NC(C)C4)cc3)nc2-c2ccc(Cl)cc21 (stereo not drawn) [Compound I-177, 9-Chloro-N-{4-[(3,5-dimethylpiperazin-1-yl)carbonyl]phenyl}-7-(2-fluoro-6-methoxyphenyl)-5H-pyrimido[5,4-d][2]benzazepin-2-amine] | ≤ 100 |
| CN1CCN(C(=O)c2ccc(Nc3ncc4c(n3)-c3ccc(Cl)cc3C(c3c(F)cccc3F)=NC4)cc2)CC1 [Compound I-184, {4-[9-Chloro-7-(2,6-difluoro-phenyl)-5H-benzo[c]pyrimido[4,5-e]azepin-2-ylamino]-phenyl}-(4-methyl-piperazin-1-yl)-methanone] | ≤ 100 |
| CNC1CN(C(=O)c2ccc(Nc3ncc4c(n3)-c3ccc(Cl)cc3C(c3c(F)cccc3OC)=NC4)cc2)C1 [Compound I-235, 9-chloro-7-(2-fluoro-6-methoxyphenyl)-N-(4-{[3-(methylamino)azetidin-1-yl]carbonyl}phenyl)-5H-pyrimido[5,4-d][2]benzazepin-2-amine] | ≤ 100 |
| CC1CN(C(=O)c2ccc(Nc3ncc4c(n3)-c3ccc(Cl)cc3C(c3ccc(F)cc3F)=NC4)cc2)CC(C)N1 (stereo not drawn) [Compound I-321, 9-chloro-7-(2,4-difluorophenyl)-N-{4-[(3,5-dimethylpiperazin-1-yl)carbonyl]phenyl}-5H-pyrimido[5,4-d][2]benzazepin-2-amine] | ≤ 100 |
| NC1CCN(C(=O)c2ccc(Nc3ncc4c(n3)-c3ccc(Cl)cc3C(c3ccccn3)=NC4)cc2)CC1 [Compound I-298, N-{4-[(4-aminopiperidin-1-yl)carbonyl]phenyl}-9-chloro-7-pyridin-2-yl-5H-pyrimido[5,4-d][2]benzazepin-2-amine] | ≤ 100 |
| COc1cccc(F)c1C1=NCc2cnc(Nc3ccc(C(=O)O)cc3)nc2-c2ccc(Cl)cc21 [Compound I-190, 4-[9-Chloro-7-(2-fluoro-6-methoxy-phenyl)-5H-benzo[c]pyrimido[4,5-e]azepin-2-ylamino]-benzoic acid] | ≤ 100 |
| O=C(c1ccc(Nc2ncc3c(n2)-c2ccc(Cl)cc2C(c2ccccc2F)=NC3)cc1)N1CCN(CCCN2CCCC2)CC1 [Compound I-188, {4-[9-Chloro-7-(2-fluoro-phenyl)-5H-benzo[c]pyrimido[4,5-e]azepin-2-ylamino]-phenyl}-[4-(3-pyrrolidin-1-yl-propyl)-piperazin-1-yl]-methanone] | ≤ 100 |
| NC1CCN(C(=O)c2ccc(Nc3ncc4c(n3)-c3ccc(Cl)cc3C(c3c(F)cccc3F)=NC4)cc2)C1 (stereo not drawn) [Compound I-196, (3-Amino-pyrrolidin-1-yl)-{4-[9-chloro-7-(2,6-difluoro-phenyl)-5H-benzo[c]pyrimido[4,5-e]azepin-2-ylamino]-phenyl}-methanone] | ≤ 100 |
| CC1CN(C(=O)c2cccc(Nc3ncc4c(n3)-c3ccc(Cl)cc3C(c3c(F)cccc3F)=NC4)c2)CC(C)N1 (stereo not drawn) [Compound I-222, 9-chloro-7-(2,6-difluorophenyl)-N-{3-[(3,5-dimethylpiperazin-1-yl)carbonyl]phenyl}-5H-pyrimido[5,4-d][2]benzazepin-2-amine] | ≤ 100 |
| CCN(CC)CCN1CCN(C(=O)c2ccc(Nc3ncc4c(n3)-c3ccc(Cl)cc3C(c3ccccc3F)=NC4)cc2)CC1 [Compound I-209, 9-chloro-N-[4-({4-[2-(diethylamino)ethyl]piperazin-1-yl}carbonyl)phenyl]-7-(2-fluorophenyl)-5H-pyrimido[5,4-d][2]benzazepin-2-amine] | ≤ 100 |
| CC1CN(C(=O)c2ccc(Nc3ncc4c(n3)-c3ccc(Cl)cc3C(c3ccccc3F)=NC4)cc2)CCN1 (stereo not drawn) [Compound I-113, {4-[9-Chloro-7-(2-fluoro-phenyl)-5H-benzo[c]pyrimido[4,5-e]azepin-2-ylamino]-phenyl}-(3-methyl-piperazin-1-yl)-methanone] | ≤ 100 |
| Cc1ccc2c(c1)C(c1ccccc1F)=NCc1cnc(Nc3ccc(C(=O)NCCCN4CCN(C)CC4)cc3)nc1-2 [Compound I-24, 4-[7-(2-Fluoro-phenyl)-9-methyl-5H-benzo[c]pyrimido[4,5-e]azepin-2-ylamino]-N-[3-(4-methyl-piperazin-1-yl)-propyl]-benzamide] | ≤ 100 |
| CNC1CN(C(=O)c2ccc(Nc3ncc4c(n3)-c3ccc(Cl)cc3C(c3c(F)cccc3Cl)=NC4)cc2)C1 [Compound I-351, 9-chloro-7-(2-chloro-6-fluorophenyl)-N-(4-{[3-(methylamino)azetidin-1-yl]carbonyl}phenyl)-5H-pyrimido[5,4-d][2]benzazepin-2-amine] | ≤ 100 |
| CNC(=O)c1ccc(Nc2ncc3c(n2)-c2ccc(Cl)cc2C(c2c(F)cccc2F)=NC3)cc1 [Compound I-334, 4-{[9-chloro-7-(2,6-difluorophenyl)-5H-pyrimido[5,4-d][2]benzazepin-2-yl]amino}-N-methylbenzamide] | ≤ 100 |
| CC1CN(C(=O)c2ccc(Nc3ncc4c(n3)-c3ccc(Cl)cc3C(c3ccccc3F)=NC4)cc2Cl)CCN1 (stereo not drawn) [Compound I-214, 9-chloro-N-{3-chloro-4-[(3-methylpiperazin-1-yl)carbonyl]phenyl}-7-(2-fluorophenyl)-5H-pyrimido[5,4-d][2]benzazepin-2-amine] | ≤ 100 |
| CN(C)CC1CN(C(=O)c2ccc(Nc3ncc4c(n3)-c3ccc(Cl)cc3C(c3ccccc3F)=NC4)cc2)C1 [Compound I-193, {4-[9-Chloro-7-(2-fluoro-phenyl)-5H-benzo[c]pyrimido[4,5-e]azepin-2-ylamino]-phenyl}-(3-dimethylaminomethyl-azetidin-1-yl)-methanone] | ≤ 100 |
| Cc1ccc2c(c1)C(c1ccccc1F)=NCc1cnc(Nc3ccc(C(=O)N4CCN(C)CC4)cc3)nc1-2 [Compound I-14, {4-[7-(2-Fluoro-phenyl)-9-methyl-5H-benzo[c]pyrimido[4,5-e]azepin-2-ylamino]-phenyl}-(4-methyl-piperazin-1-yl)-methanone] | ≤ 100 |
| CNC1CCN(C(=O)c2cc(Nc3ncc4c(n3)-c3ccc(Cl)cc3C(c3c(F)cccc3F)=NC4)ccc2Cl)CC1 [Compound I-282, 9-chloro-N-(4-chloro-3-{[4-(methylamino)piperidin-1-yl]carbonyl}phenyl)-7-(2,6-difluorophenyl)-5H-pyrimido[5,4-d][2]benzazepin-2-amine] | ≤ 100 |
| CN(C)CCCN(C)C(=O)c1ccc(Nc2ncc3c(n2)-c2ccc(Cl)cc2C(c2c(F)cccc2F)=NC3)cc1 [Compound I-185, 4-[9-Chloro-7-(2,6-difluoro-phenyl)-5H-benzo[c]pyrimido[4,5-e]azepin-2-ylamino]-N-(3-dimethylamino-propyl)-N-methyl-benzamide] | ≤ 100 |
| CN(C)C1CN(C(=O)c2ccc(Nc3ncc4c(n3)-c3ccc(Cl)cc3C(c3ccccc3F)=NC4)cc2)C1 [Compound I-98, {4-[9-Chloro-7-(2-fluoro-phenyl)-5H-benzo[c]pyrimido[4,5-e]azepin-2-ylamino]-phenyl}-(3-dimethylamino-azetidin-1-yl)-methanone] | ≤ 100 |
| COc1cccc(F)c1C1=NCc2cnc(Nc3ccc(C(=O)N(C)CCCN)cc3)nc2-c2ccc(Cl)cc21 [Compound I-264, N-(3-aminopropyl)-4-{[9-chloro-7-(2-fluoro-6-methoxyphenyl)-5H-pyrimido[5,4-d][2]benzazepin-2-yl]amino}-N-methylbenzamide] | ≤ 100 |
| NC(=O)Cc1cccc(Nc2ncc3c(n2)-c2ccc(Cl)cc2C(c2ccccc2Cl)=NC3)c1 [Compound I-66, 2-{3-[9-Chloro-7-(2-chloro-phenyl)-5H-benzo[c]pyrimido[4,5-e]azepin-2-ylamino]-phenyl}-acetamide] | ≤ 100 |
| NC1CCN(C(=O)c2ccc(Nc3ncc4c(n3)-c3ccc(Cl)cc3C(c3c(F)cccc3F)=NC4)cc2)CC1 [Compound I-239, N-{4-[(4-aminopiperidin-1-yl)carbonyl]phenyl}-9-chloro-7-(2,6-difluorophenyl)-5H-pyrimido[5,4-d][2]benzazepin-2-amine] | ≤ 100 |
